Measurements: US4435404A, “Carbostyril derivatives” (priority 1980, dated 1984)

Tests used:
[1] = tested on: bastard dog; experiment: Increasing effect of cerebral blood flow; assay type: in vivo; conditions: profunda femoris vein
Protocol: Thus, a bastard dog (male, 12-20 kg of body weight) was fixed in a prone (position) and was anesthetized with 20 mg/kg of pentobarbital sodium and made forced breathing to kept the frequency of respiration at 20 times/minutes. Then, the skull was bared and the surface bone was removed to expose the venous sinus by using grinder and the venous blood was took out from the venas which was cannulizated. The amount of venous blood flow was measured by using an electromagnetic blood flow meter and next measured by using drop-counter by measuring the number of drops of blood per 10 seconds.
The increasing effect of cerebral blood flow was calculated by comparing the number of blood drops in 30 seconds at the peak of increasement shown before and after the administration of compound to be tested. The each of compounds to be tested was dissolved in dimethylformamide and diluted with physiological saline solution and administered through a cannule being inserted into the profunda femoris vein.

[2] = tested on: arterial papillary muscle; experiment: Positive inotropic effect, blood-perfused arterial papillary muscle; parameters: species or system dog; conditions: into septal artery
Protocol: Positive inotropic effects of the novel carbostyril derivatives of the present invention were tested according to a method described by M. Endoh and K. Hashimoto, in "American Journal of Physiology", Vol. 218, No. 5, May, 1970, pages 1459-1463 as follows:
Adult bastard dogs of both sexes, weighing 8-12 kg, were anesthetized with pentobarbital-Na at a rate of 30 mg/kg by intraveneous administration. After another intraveneous administration of sodium heparin, 1,000 μ/kg, the test dog was sacrificed by blood letting. The heart of the dog was excised and immediately plunged into Locke's solution, then the arterial papillary muscle was excised out with interventicular septum. The septal artery was carefully isolated and cannulated with a polyethylene cannula and was ligated with thread. Septal arteries those of connected to other than the arterial papillary muscle were ligated with thread. Next, the donor adult bastard dogs, weighing 18-27 kg, were anesthetized with pentabarbital-Na (30 mg/kg, intraveneous injection), and further treated with intravenous administration of sodium heparin (1,000 μ/kg). The arterial papillary muscle was perfused through the septal artery being cannulated with the polyethylene cannula with the blood conducted from the carotid artery of the donor dog by aid of Peristaric pump. The perfusion pressure was maintained at 100 mmHg constantly. Then the muscle was electrically stimulated by an electronic stimulator through bipolar electrodes in contact with the interventicular septum. The strength of stimulation was 2 X (the minimum value for appearing the action), frequency 2 Hz, pulse duration 2 msec.
The isometric contraction generated was measured through a force-displacement transducer. The amount of blood flow in the coronary arteries was measured by determining the amount of the blood flow conducted to the septal artery by electromagnetic flow meter. All the data were recorded on an ink-writing recorder.
A solution containing a compound to be tested was injected into the septal artery through the rubber tube connected close to the shunk of the polyethylene cannula, in an amount of 10-30 μl.
The results obtained is shown in Table 4, in which the increasement (%) of contraction is indicated as the ratio of the contractions before and after the administration (injection) of the solution containing the test compound.

[3] = tested on: Deoxycorticosteroneacetate (DOCA)/saline hypertension rats (DHR); experiment: Hypotensive effect, Tail-cuff method, DHR; assay type: in vivo, rat; conditions: 30 mg/kg oral, mean value ± standard deviation
Protocol: (§1) Hypotensive effect of the compounds were measured by determining the maximum blood pressure of the test animals according to a procedure of Tail-cuff method.
(§2) Test animals used were the following two types.
(2) Deoxycorticosteroneacetate (DOCA)/saline hypertension rats (DHR)
Wistar strain male rats having 150-170 g of body weight, were anesthetized with ether and the left-side kidney was enucleated. One (1) week after the operation, 10 mg/kg of DOCA was injected subcutaneously once a week and 1% NaCl aqueous solution was given as drinking water. Five (5) weeks after the operation, rats having the maximum blood pressure over 150 mmHg were selected and used as test animals which were abstained from food for overnight.
(§3) Each of compounds to be tested were administered orally and the blood pressure was measured before the administration and 1, 2, 4, 6 and 8 hours after the administration. The blood pressure was measured by using Recorder (Rectihoriz type 8S, San-ei Instrument) and Electrosthygmomanometer PE-300 (Macro Bio-systems, Houston, Tex.).

[4] = tested on: Gold blatt type renoprival hypertension rats (RHR); experiment: Hypotensive effect, Tail-cuff method, RHR; assay type: in vivo, rat; conditions: 30 mg/kg oral, mean value ± standard deviation
Protocol: as §1, §2
(1) Gold blatt type renoprival hypertension rats (RHR)
Wistar strain male rats having, 160-180 g of body weight, were anesthetized with ether and the left-side renal artery was pluged with a silver clip having 0.2 mm inside diameter, while the right-side renal artery was kept as it was without operation. Four (4) weeks after the operation, rats having the maximum blood pressure over 150 mmHg were selected and used as test animals which were abstained from food for overnight.
as §3

| Substance | Increasing effect of cerebral blood flow ([1]; dosage 300 μg/kg) | Increasing of inotropic ([2]; dosage 10 n mol) | Increasing of inotropic ([2]; dosage 100 n mol) | Maximum blood pressure after the administration (difference) ([3]; 1 hour) | Maximum blood pressure after the administration (difference) ([3]; 2 hours) | Maximum blood pressure after the administration (difference) ([3]; 4 hours) | Maximum blood pressure after the administration (difference) ([3]; 6 hours) | Maximum blood pressure after the administration (difference) ([4]; 1 hour) | Maximum blood pressure after the administration (difference) ([4]; 2 hours) | Maximum blood pressure after the administration (difference) ([4]; 4 hours) | Increasing of inotropic ([2]; dosage 30 n mol) | Maximum blood pressure after the administration (difference) ([4]; 6 hours) | Increasing effect of cerebral blood flow ([1]; dosage 100 μg/kg) | Maximum blood pressure after the administration (difference) ([4]; 8 hours) |
| --- | --- | --- | --- | --- | --- | --- | --- | --- | --- | --- | --- | --- | --- | --- |
| 6-{3-[N-(2-Hydroxybutyl)-N-cyclohexylaminocarbonyl]propoxy}-3,4-dihydrocarbostyril [Example 4] | 64.2% | 10% | 62.5% |  |  |  |  |  |  |  |  |  |  |  |
| 6-{3-[N-(2-hydroxyethyl)-N-cyclohexylaminocarbonyl]propoxy}-3,4-dihydrocarbostyril [Example 2] |  | 38.9% |  | -63.0 ± 9.1 mmHg | -30.4 ± 9.9 mmHg | -42.8 ± 5.5 mmHg | -24.1 ± 6.8 mmHg | -4.8 ± 6.4 mmHg | -4.8 ± 3.7 mmHg | -3.2 ± 4.0 mmHg | 94.3% |  |  |  |
| 6-{4-[N-(2-Hydroxyethyl)-N-cyclohexylaminocarbonyl]butoxy}-3,4-dihydrocarbostyril [Example 9] |  |  |  | -51.2 ± 14.0 mmHg | -44.6 ± 14.6 mmHg | -42.4 ± 13.9 mmHg | -34.0 ± 10.2 mmHg | -10.1 ± 6.2 mmHg | -11.6 ± 9.6 mmHg | -14.2 ± 5.0 mmHg |  | -8.0 ± 2.6 mmHg | 85.3% |  |
| 6-{4-[N-(2-Hydroxypropyl)-N-cyclohexylaminocarbonyl]butoxy}-3,4-dihydrocarbostyril [Example 8] |  |  | 89.4% |  |  |  |  |  |  |  | 38.7% |  |  |  |
| 6-{5-[N-(2-Hydroxybutyl)-N-cyclohexylaminocarbonyl]pentyloxy}-3,4-dihydrocarbostyril [Example 16] |  |  |  | -20.2 ± 8.0 mmHg | -21.2 ± 9.7 mmHg | -16.2 ± 6.8 mmHg | -6.5 ± 8.5 mmHg |  |  |  |  |  | 63.2% |  |
| 7-{3-[N-(3-Hydroxypropyl)-N-cyclohexylaminocarbonyl]propoxy}-3,4-dihydrocarbostyril [Example 17] |  |  |  | -2.5 ± 4.0 mmHg | -8.7 ± 3.3 mmHg | -9.3 ± 8.6 mmHg |  | -25.5 ± 7.0 mmHg | -23.3 ± 9.6 mmHg | -27.0 ± 14.1 mmHg |  | -33.7 ± 10.2 mmHg | 34.4% | -29.8 ± 9.7 mmHg |
